Test results reported in patent publication US4670456A, “4-Aminocarbonylaminomethyl-1-benzylpyrrolidin-2-ones as nootropic agents and as agents for treating cerebral insufficiency” (Boehringer Ingelheim KG, priority 1984, dated 1987).
pIC50: −log10 of the molar value. Where two headings read alike, the source gives them in different places.

What was measured:
mice [1] = experiment: Reversal of Scopolamine-Induced Transient Disruption of the Memory of a Passive Avoidance Procedure; format: in vivo; settings: scopolamine 0.6 mg/kg i.p.
Method: 1. […] The animals used were mice, to which scopolamine was administered at a dosage of 0.6 mg/kg, i.p.

Acute Toxicity (LD50) = settings: in vivo, po; mouse
Method: The acute toxicity of the test compounds was determined in the conventional manner, in the mouse.

[2] = molecular target: Muscarine-Cholinergic Receptor (Hippocampus); experiment: Muscarine-Cholinergic Receptor Binding, hippocampus; parameters: species or system rat
Method: The IC50 values were calculated in the manner described by Y. C.

mice [3] = experiment: Hypoxia Tolerance Test; format: in vivo; settings: 96.5% nitrogen, 3.5% oxygen, effective: at most 1-2 treated animals died when 7-8 untreated had died
Method: 2. Hypoxia Tolerance Test
In the method employed, mice which are untreated controls or which have been pretreated with the test substance (p.o.) are placed in respective sealed chambers which are filled with a gas mixture consisting of 96.5% nitrogen and 3.5% oxygen. The observer waits until 7-8 of the untreated animals have died. This occurs within 6-7 minutes. If the test substance is effective, at most 1-2 of the treated animals may have died.

[4] = molecular target: muscarine-cholinergic receptor structures in the rat cortex; experiment: Muscarine-Cholinergic Receptor Binding, cortex
Method: Also as described in Example 8, the compounds tested bound with high affinity to muscarine-cholinergic receptor structures in the rat cortex.
3. Muscarine-Cholinergic Receptor Binding
This test was performed according to the methods described by M. Watson et al., Life Sci., 32, 3001-3011 (1983) and R. Hammer et al., Nature, 283, 90=92 (1980). The IC50 values were calculated in the manner described by Y. C. Cheng et al., Biochemical Pharmacology, 22, 3099-3108 (1973).

[5] = printed across the Hippocampus and Cortex columns, ineffective up to the stated concentration, read-out: Muscarine Receptor Binding, IC50, Hippocampus and Cortex (ineffective up to)
[6] = Hippocampus, read-out: Muscarine Receptor Binding, IC50, Hippocampus

CN1CCN(C(=O)NCC2CC(=O)N(Cc3ccccc3)C2)CC1 (centres unmarked) [Example 1, 4-(N-Methylpiperazinyl-carbonylaminomethyl)-1-benzylpyrrolidin-2-one]
Scopolamine-Induced Memory Disruption, % Inhibition (mice [1]; 10 mg/kg p.o.): 43%
LD50 at 336 h (Acute Toxicity (LD50)): 1500 to 2000 mg/kg

COc1ccc(C(=O)N2CCCC2=O)cc1 [Aniracetam, 1-(p-methoxybenzoyl)-pyrrolidin-2-one, reference compound]
Scopolamine-Induced Memory Disruption, % Inhibition (mice [1]; 30 mg/kg p.o.): 29.7%
Scopolamine-Induced Memory Disruption, % Inhibition (mice [1]; 50 mg/kg p.o.): 42.6%
Scopolamine-Induced Memory Disruption, % Inhibition (mice [1]; 100 mg/kg p.o.): 49.3%
pIC50 [2, 5]: < 4.00

NC(=O)CN1CCCC1=O [Piracetam, 1-carbomyl-methyl-pyrrolidin-2-one, reference compound]
Scopolamine-Induced Memory Disruption, % Inhibition (mice [1]; 100 mg/kg p.o.): 42.9%
Scopolamine-Induced Memory Disruption, % Inhibition (mice [1]; 200 mg/kg p.o.): 53.7%
Scopolamine-Induced Memory Disruption, % Inhibition (mice [1]; 500 mg/kg p.o.): 50.0%
Hypoxia Tolerance (mice [3]; 150 mg/kg p.o.): effective
pIC50 [2, 5]: < 3.00

O=C(NCC1CC(=O)N(Cc2ccccc2)C1)Nc1ccc(Cl)cc1 (centres unmarked) [Example 5, 4-(p-Chlorophenylamino-carbonylaminomethyl)-1-benzylpyrrolidin-2-one]
Scopolamine-Induced Memory Disruption, % Inhibition (mice [1]; 5 mg/kg p.o.): 50%
Scopolamine-Induced Memory Disruption, % Inhibition (mice [1]; 10 mg/kg p.o.): 70%
Hypoxia Tolerance (mice [3]; 100 mg/kg p.o.): effective
pIC50 [2, 6]: 4.03
LD50 at 336 h (Acute Toxicity (LD50)): > 2000 mg/kg

Cc1ccc(CN2CC(CNC(=O)N3CCN(C)CC3)CC2=O)cc1 (centres unmarked) [Example 13]
Scopolamine-Induced Memory Disruption, % Inhibition (mice [1]; 50 mg/kg p.o.): 50%
pIC50 [2, 6]: 4.59
pIC50 [4]: < 5.00

CNC(=O)NCC1CC(=O)N(Cc2ccccc2)C1 (centres unmarked) [Example 7]
Scopolamine-Induced Memory Disruption, % Inhibition (mice [1]; 100 mg/kg p.o.): 60%
pIC50 [2, 6]: < 4.00

CN1CCN(C(=O)N(C)CC2CC(=O)N(Cc3ccccc3)C2)CC1 (centres unmarked) [Example 17]
Scopolamine-Induced Memory Disruption, % Inhibition (mice [1]; 30 mg/kg p.o.): 45%
pIC50 [2, 6]: < 4.00
